Twelve compounds from patent US20250152564A1, “PROPYLENE KETONE-CONTAINING BIOINHIBITOR, PREPARATION METHOD THEREFOR, AND USE THEREOF” (SHANGHAI HANSOH BIOMEDICAL CO., LTD., priority 2022, published 2025) can be followed below.

Each structure is given as a SMILES string. pIC50: −log10 of the molar value.

The target of experiment [1] is FGFR1 (Homo sapiens (Human), UniProt P11362). The experiment is described as follows: TR-FRET kinase inhibition assay, FGFR1. The class given is biochemical. The conditions noted are these: ATP Km concentration (30 μM). The procedure: (§1) To measure the IC50 values of the compounds against FGFR1, FGFR2, FGFR3, FGFR4, and FGFR2 V564F at ATP Km concentrations by TR-FRET method.
Sequence of FGFR1 (P11362 478-767): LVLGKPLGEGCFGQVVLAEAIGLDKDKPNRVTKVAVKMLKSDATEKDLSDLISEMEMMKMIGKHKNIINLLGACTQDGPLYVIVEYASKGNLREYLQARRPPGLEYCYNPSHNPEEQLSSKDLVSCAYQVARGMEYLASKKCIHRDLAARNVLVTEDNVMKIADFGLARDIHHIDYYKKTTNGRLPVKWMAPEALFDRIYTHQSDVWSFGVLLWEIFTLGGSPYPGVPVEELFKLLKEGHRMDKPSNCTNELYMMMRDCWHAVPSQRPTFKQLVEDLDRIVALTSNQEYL
(§2) TR-FRET (time-resolved fluorescence resonance energy transfer) method was used to detect the inhibitory activity of the compounds on FGFR1, FGFR2, FGFR3, FGFR4, and FGFR2 V564F kinase region fragments. The highest detection concentration of the compounds in 5 kinase experiments was 1000 nM, which was diluted in 3 folds, with a total of 11 concentrations (1000 nM to 0.017 nM). A kinase buffer (50 mM HEPES pH 7.5, 1 mM EGTA, 10 mM MgCl2, 2 mM DTT, and 0.01% Tween-20) was used to prepare 4× enzyme solution, 4× compound solutions diluted in gradient, and a 2×ATP/Peptide substrate solution. To a 384-well plate, 2.5 μL of enzyme solution and 2.5 μL of diluted […] compound solution were added, and 5 μL of 2×ATP/Peptide substrate solution was then added. After reacting at room temperature for 60 minutes for FGFR1, FGFR2, FGFR3, and FGFR2 V564F kinases, and 120 minutes for FGFR4 kinase, 10 μL of a 2× termination and detection mixed liquid prepared with 1×LANCE detection buffer with an EDTA concentration of 20 mM and a Europium-anti-phosphotyrosine (PT66) concentration of 2 nM was added to each well of the plate. After reacting at room temperature for 60 minutes for FGFR1, FGFR2, FGFR3, and FGFR4, and 30 minutes for FGFR2 V564F, the fluorescence signal value in each well of the plate was measured by a microplate reader.
(§3) 1) Inhibition rate (%): Calculation was performed on the raw data (665 nm/620 nm reading ratio) according to the following formula to obtain the inhibition rate. Inhibition rate %=[(mean value in positive control well−value in sample well)/(mean value in positive control well−mean value in negative control well)]×100, wherein the positive control well was a reaction well without a compound […], and the negative control well was a reaction wells without an enzyme.
(§4) 2) Curve fitting: Log(inhibitor) vs. response—Variable slope (four parameters) in GraphPad Prism 6 was used for fitting equation analysis of the compound concentration and the corresponding inhibition rate, and the curve was fitted to obtain the IC50 values of the compounds.
Background: TR-FRET usually uses a lanthanide donor and a delayed reading to cut background.

In experiment [2] the target is FGFR2 (Homo sapiens (Human), UniProt P21802). The experiment is described as follows: TR-FRET kinase inhibition assay, FGFR2. The class given is biochemical. Particulars: ATP Km concentration (30 μM). The method, then: as §1, §2, §3, §4
Sequence of FGFR2 (P21802 481-770): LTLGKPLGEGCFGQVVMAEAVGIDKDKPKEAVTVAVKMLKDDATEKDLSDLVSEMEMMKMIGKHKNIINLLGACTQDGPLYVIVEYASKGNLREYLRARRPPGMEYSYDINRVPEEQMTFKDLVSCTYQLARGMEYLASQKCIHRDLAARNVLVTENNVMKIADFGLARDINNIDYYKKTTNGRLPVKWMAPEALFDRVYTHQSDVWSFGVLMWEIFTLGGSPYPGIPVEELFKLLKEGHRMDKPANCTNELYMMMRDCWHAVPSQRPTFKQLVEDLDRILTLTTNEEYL
Experiment [3] concerns the target FGFR2 V564F (Homo sapiens (Human), UniProt P21802, V564F). The experiment is described as follows: TR-FRET kinase inhibition assay, FGFR2 V564F. The format is biochemical. Particulars: ATP Km concentration (20 μM). The method, then: as §1, §2, §3, §4
Experiment [4] concerns BaF3 FGFR2-BICC1 V564F cells. The experiment is described as follows: CellTiter-Glo cell proliferation inhibition, BaF3 FGFR2-BICC1 V564F. The format is cell-based. Particulars: Mus musculus, 72 h, read-out: BaF3 FGFR2-BICC1 V564F inhibitory activity IC50. The method, then: To evaluate inhibitory effects of the compounds on the proliferation of NCI-H716, SNU-16 and BaF3-FGFR2-BICC1 V564F cells by cell proliferation inhibition experiments.
CellTiter-Glo method was used to detect inhibitory effects of the compounds on the proliferation of NCI-H716, SNU-16 and BaF3 FGFR2-BICC1 V564F cells. The highest detection concentration of the compounds was 1000 nM, which was diluted in 3 folds, with a total of 9 concentrations (1000 nM to 0.15 nM). After the cells were plated at an appropriate density, compounds were added the next day and incubated for 72 h before detection using the […] detection kit.
1) Inhibition rate (%): Inhibition rate %=[(mean value in positive control well−value in sample well)/(mean value in positive control well−mean value in negative control well)]×100, wherein the positive control well was a reaction well without a compound […], and the negative control well was a reaction wells without an enzyme.
as §4
On the technique in general: ATP-based viability assays read luminescence as a measure of living cells.

Sequence of FGFR2 V564F (P21802 481-770 V564F): as the sequence (P21802 481-770) above, with V84F counted along it

In general, pIC50 refers to the negative decadic logarithm of the IC50, by convention in mol/L. With `C=CC(=O)N1CC[C@H](n2nc(C#Cc3cc4nc(C)n(C5CC5)c4cc3F)c3c(N)ncc(C(C)=O)c32)C1` [Example 55, (S)-1-(3-(7-acetyl-4-amino-3-((1-cyclopropyl-6-fluoro-2-methyl-1H-benzo[d]imidazol-5-yl)ethynyl)-1H-pyrazolo[4,3-c]pyridin-1-yl)pyrrolidin-1-yl)prop-2-en-1-one], the pIC50 was 8.36 in experiment [1], 8.55 in experiment [2], 9.00 in experiment [3] and 8.66 in experiment [4].
For `[2H]C([2H])([2H])n1cnc2cc(C#Cc3nn([C@H]4CCN(C(=O)C=C)C4)c4c(-c5nccs5)cnc(N)c34)c(F)cc21` [Example 25, (S)-1-(3-(4-amino-3-((6-fluoro-1-(methyl-d3)-1Hbenzo[d]imidazol-5-yl)ethynyl)-7-(thiazol-2-yl)-1Hpyrazolo[4,3-c]pyridin-1-yl)pyrrolidin-1-yl)prop-2-en-1-one], the pIC50 was 8.24 in experiment [1], 8.82 in experiment [2] and 9.22 in experiment [3].
`C=CC(=O)N1CC[C@H](n2nc(C#Cc3ccc4ccnn4c3)c3c(N)ncc(C(=O)C4CC4)c32)C1` [Example 73, (S)-1-(3-(4-amino-7-(cyclopropanecarbonyl)-3-(pyrazolo[1,5-a]pyridine-6-ethynylene)-1H-pyrazolo[4,3-c]pyridin-1-yl)pyrrolidine-1-methyl)prop-2-en-1-one]: the pIC50 was 8.64 in experiment [1], 9.15 in experiment [2] and 9.05 in experiment [3].
In the case of `C=CC(=O)N1CC[C@H](n2nc(C#Cc3ccc4c(c3)ncn4CC)c3c(N)ncc(C(=O)CC)c32)C1` [Example 57, (S)-1-(3-(4-amino-3-((1-ethyl-1H-benzo[d]imidazol-5-yl)ethynyl)-7-propionyl-1H-pyrazolo[4,3-c]pyridin-1-yl)pyrrolidin-1-yl)prop-2-en-1-one], the pIC50 in experiment [1] was 8.25; in experiment [2], 8.89; in experiment [3], 9.30; in experiment [4], 8.60.
`C=CC(=O)N1CC[C@H](n2nc(C#Cc3c(F)cc4c(ncn4C)c3F)c3c(N)ncc(-c4cscn4)c32)C1` [Example 29, (S)-1-(3-(4-amino-3-((4,6-difluoro-1-methyl-1H-benzo[d]imidazol-5-yl)ethynyl)-7-(thiazol-4-yl)-1H-pyrazolo[4,3-c]pyridin-1-yl)pyrrolidin-1-yl)prop-2-en-1-one]: the figures for the pIC50 in experiment [1], in experiment [2] and in experiment [3] were 8.15, 8.82 and 8.44, respectively.
Turning to `C=CC(=O)N1CC[C@H](n2nc(C#Cc3c(F)cc4c(ncn4C)c3F)c3c(N)ncc(C(C)=O)c32)C1` [Example 31, (S)-1-(3-(7-acetyl-4-amino-3-((4,6-difluoro-1-methyl-1H-benzo[d]imidazol-5-yl)ethynyl)-1H-pyrazolo[4,3-c]pyridin-1-yl)pyrrolidin-1-yl)prop-2-en-1-one], the pIC50 was 8.46 in experiment [1], 8.92 in experiment [2], 9.10 in experiment [3] and 8.85 in experiment [4].
Take `C=CC(=O)N1CC[C@H](n2nc(C#Cc3cc4ncn(C5CC5)c4cc3Cl)c3c(N)ncc(C(C)=O)c32)C1` [Example 44, (S)-1-(3-(7-acetyl-4-amino-3-((6-chloro-1-cyclopropyl-1H-benzo[d]imidazol-5-yl)ethynyl)-1H-pyrazolo[4,3-c]pyridin-1-yl)pyrrolidin-1-yl)prop-2-en-1-one]: the negative-log IC50 (pIC50) was 8.36 in experiment [1], 8.66 in experiment [2], 9.40 in experiment [3] and 9.10 in experiment [4].
On to `C=CC(=O)N1CC[C@H](n2nc(C#Cc3cc4ncn(CC)c4cc3F)c3c(N)ncc(-c4nccs4)c32)C1` [Example 22, (S)-1-(3-(4-amino-3-((1-ethyl-6-fluoro-1H-benzo[d]imidazol-5-yl)ethynyl)-7-(thiazol-2-yl)-1H-pyrazolo[4,3-c]pyridin-1-yl)pyrrolidin-1-yl)prop-2-en-1-one], for which the pIC50 is 8.19 in experiment [1], 8.80 in experiment [2] and 9.10 in experiment [3].
Regarding `C=CC(=O)N1CC[C@H](n2nc(C#Cc3cc4ncn(C5CC5)c4cc3F)c3c(N)ncc(-c4nccs4)c32)C1` [Example 34, (S)-1-(3-(4-amino-3-((1-cyclopropyl-6-fluoro-1H-benzo[d]imidazol-5-yl)ethynyl)-7-(thiazol-2-yl)-1H-pyrazolo[4,3-c]pyridin-1-yl)pyrrolidin-1-yl)prop-2-en-1-one], the pIC50 in experiment [1] was 8.18; in experiment [2], 8.49; in experiment [3], 8.66; in experiment [4] it was 8.54.
Take `C=CC(=O)N1CC[C@H](n2nc(C#Cc3cc4nc(C)n(C5CC5)c4cc3Cl)c3c(N)ncc(C(C)=O)c32)C1` [Example 54, (S)-1-(3-(7-acetyl-4-amino-3-((6-chloro-1-cyclopropyl-2-methyl-1H-benzo[d]imidazol-5-yl)ethynyl)-1H-pyrazolo[4,3-c]pyridin-1-yl)pyrrolidin-1-yl)prop-2-en-1-one]: the pIC50 was 8.26 in experiment [1], 8.47 in experiment [2], 9.05 in experiment [3] and 8.66 in experiment [4].
As for `C=CC(=O)N1CC[C@H](n2nc(C#Cc3ccc4c(c3)ncn4C)c3c(N)ncc(C(=O)C(C)C)c32)C1` [Example 66], the negative logarithm of the IC50 (pIC50) is 8.17 in experiment [1], 8.54 in experiment [2], 9.10 in experiment [3] and 8.55 in experiment [4].
Taken in the same sequence, the figures for `C=CC(=O)N1CC[C@H](n2nc(C#Cc3cc4ncn(C5CC5)c4cc3Cl)c3c(N)ncc(C(=O)C4CC4)c32)C1` [Example 46, (S)-1-(3-(4-amino-3-((6-chloro-1-cyclopropyl-1H-benzo[d]imidazol-5-yl)ethynyl)-7-(cyclopropanecarbonyl)-1H-pyrazolo[4,3-c]pyridin-1-yl)pyrrolidin-1-yl)prop-2-en-1-one] were 8.28, 8.46, 8.96 and 9.70.
